Assay: Effect of TB4 on bodyweight of db/db mice
Type: in vivo, mouse
Details: for Weight: db/db mice, mean ± SE
Method: All experimental procedures were carried out in accordance with NIH Guide for the Care and Use of Laboratory Animals and approved by the institutional Animal Care and Use Committee of Henry Ford Hospital. Male BKS.Cg-m+/+Lepr^db/J(db/db) mice (Jackson Laboratories, Bar Harbor, Me.) aged 20 weeks were used. Age-matched heterozygotes mice (db/m), a non-penetrant genotype (Jackson Laboratories), were used as the control animals.
db/db mice at age 20 weeks were treated with Tβ4 at a dose of 6 mg/kg or 24 mg/kg (RegeneRx, Inc, intraperitoneal injection, i.p.), every 3 days for 4 weeks (n=10/group). db/db mice (n=10/group) at the same age treated with same volume of saline were used as a control group. Age-matched db/m mice treated with Tβ4 (6 mg/kg i.p. every 3 days, n=10/group) or saline (n=10/group) were used as additional control groups. All mice were sacrificed 8 weeks after the initial treatment. Doses of Tβ4 were selected based on published studies^13.

Work on CC[C@H](C)[C@H](NC(=O)[C@H](CCC(=O)O)NC(=O)[C@H](C)NC(=O)[C@H](CCSC)NC(=O)[C@H](CC(=O)O)NC(=O)[C@@H]1CCCN1C(=O)[C@H](CCCCN)NC(=O)[C@H](CC(=O)O)NC(=O)[C@H](CO)NC(C)=O)C(=O)N[C@@H](CCC(=O)O)C(=O)N[C@@H](CCCCN)C(=O)N[C@@H](Cc1ccccc1)C(=O)N[C@@H](CC(=O)O)C(=O)N[C@@H](CCCCN)C(=O)N[C@@H](CO)C(=O)N[C@@H](CCCCN)C(=O)N[C@@H](CC(C)C)C(=O)N[C@@H](CCCCN)C(=O)N[C@@H](CCCCN)C(=O)N[C@H](C(=O)N[C@@H](CCC(=O)O)C(=O)N[C@H](C(=O)N[C@@H](CCC(N)=O)C(=O)N[C@@H](CCC(=O)O)C(=O)N[C@@H](CCCCN)C(=O)N[C@@H](CC(N)=O)C(=O)N1CCC[C@H]1C(=O)N[C@@H](CC(C)C)C(=O)N1CCC[C@H]1C(=O)N[C@@H](CO)C(=O)N[C@@H](CCCCN)C(=O)N[C@@H](CCC(=O)O)C(=O)N[C@H](C(=O)N[C@H](C(=O)N[C@@H](CCC(=O)O)C(=O)N[C@@H](CCC(N)=O)C(=O)N[C@@H](CCC(=O)O)C(=O)N[C@@H](CCCCN)C(=O)N[C@@H](CCC(N)=O)C(=O)N[C@@H](C)C(=O)NCC(=O)N[C@@H](CCC(=O)O)C(=O)N[C@@H](CO)C(=O)O)[C@@H](C)CC)[C@@H](C)O)[C@@H](C)O)[C@@H](C)O [Tβ4, thymosin beta 4] yielded a Weight (TB4 6 mg/kg i.p. every 3 days for 4 weeks, 0 w (before the treatment)) of 59.5 ± 0.9 g, a Weight (TB4 6 mg/kg, 2 w) of 57.1 ± 1.1 g and a Weight (TB4 6 mg/kg, 4 w) of 56.2 ± 1.2 g. The Weight (TB4 6 mg/kg, 6 w) was 53.7 ± 1.5 g, the Weight (TB4 6 mg/kg, 8 w) was 53.0 ± 1.7 g and the Weight (TB4 24 mg/kg i.p. every 3 days for 4 weeks, 0 w (before the treatment)) was 58.9 ± 1.1 g. For the same compound, the Weight (TB4 24 mg/kg, 2 w) was 58.1 ± 1.2 g, the Weight (TB4 24 mg/kg, 4 w) was 55.7 ± 1.5 g and the Weight (TB4 24 mg/kg, 6 w) was 56.0 ± 1.4 g. The Weight (TB4 24 mg/kg, 8 w) was 54.8 ± 1.6 g and the animal body weight (db/db mouse treated with Tβ4 (Table 1)) was “did not significantly alter”.
